According to publication PMC11904033, “Lanatoside C activates the E3 ligase STUB1 to inhibit FOXP3 transcriptional activity and promote antitumor immunity” (EMBO Molecular Medicine, 2025):

Key:
STUB1 = target: T1, STUB1 (Homo sapiens, UniProt Q9UNE7); test: thermal shift in […] lysate (immunoblot); DARTS; assay type: biochemical; settings: 10 uM Lac for 30 min in thermal shift; 30 uM Lac for 3 h in DARTS
T1 construct: full length (303 residues), HA-tagged, ectopically expressed in 293T cells, lysate
T1 sequence (Q9UNE7 1-303): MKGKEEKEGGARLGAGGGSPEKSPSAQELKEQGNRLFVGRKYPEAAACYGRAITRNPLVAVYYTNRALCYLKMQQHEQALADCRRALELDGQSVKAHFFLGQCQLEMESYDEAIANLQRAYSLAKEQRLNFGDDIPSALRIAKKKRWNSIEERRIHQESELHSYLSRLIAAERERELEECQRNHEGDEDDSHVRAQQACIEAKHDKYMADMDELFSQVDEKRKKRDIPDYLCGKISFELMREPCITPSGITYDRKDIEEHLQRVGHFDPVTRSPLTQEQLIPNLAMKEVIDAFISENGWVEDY

[1] = target: T2, STUB1 TPR domain (STUB1 1-130) (Homo sapiens, UniProt Q9UNE7); test: isothermal titration calorimetry; assay type: binding; settings: read-out: Ka (converted)
T2 construct: N-terminal TPR domain, residues 1-130; ITC: His-tagged from E. coli BL21 (pET-T7-STUB1 1-130-His); thermal shift and point mutants: 1-130-3xFlag6xHis expressed in 293T cells
T2 sequence (Q9UNE7 1-130): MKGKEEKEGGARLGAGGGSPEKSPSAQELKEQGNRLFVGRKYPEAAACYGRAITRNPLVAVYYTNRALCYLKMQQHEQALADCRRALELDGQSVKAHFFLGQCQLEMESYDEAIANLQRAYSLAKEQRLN

`CC(=O)O[C@H]1C[C@H](O[C@H]2[C@@H](O)C[C@H](O[C@H]3[C@@H](O)C[C@H](O[C@H]4CC[C@@]5(C)[C@H](CC[C@@H]6[C@@H]5C[C@@H](O)[C@]5(C)[C@@H](C7=CC(=O)OC7)CC[C@]65O)C4)O[C@@H]3C)O[C@@H]2C)O[C@H](C)[C@H]1O[C@@H]1O[C@H](CO)[C@@H](O)[C@H](O)[C@H]1O` [Lanatoside C] was tested, and the thermal shift (STUB1) was “Lac directly bound STUB1 as revealed in the thermal shift assay” and the Kd [1] was 7.69 µM.
